pIC50: −log10 of the molar value.

The target in data set [1] is T1, GST-tagged Eg5 motor domain (Homo sapiens, UniProt P52732).
T1 construct: 4 nM GST-tagged Eg5 motor domain protein (Cytoskeleton, EG01); purchased Cytoskeleton EG01
T1 sequence (P52732 18-359 limits assumed): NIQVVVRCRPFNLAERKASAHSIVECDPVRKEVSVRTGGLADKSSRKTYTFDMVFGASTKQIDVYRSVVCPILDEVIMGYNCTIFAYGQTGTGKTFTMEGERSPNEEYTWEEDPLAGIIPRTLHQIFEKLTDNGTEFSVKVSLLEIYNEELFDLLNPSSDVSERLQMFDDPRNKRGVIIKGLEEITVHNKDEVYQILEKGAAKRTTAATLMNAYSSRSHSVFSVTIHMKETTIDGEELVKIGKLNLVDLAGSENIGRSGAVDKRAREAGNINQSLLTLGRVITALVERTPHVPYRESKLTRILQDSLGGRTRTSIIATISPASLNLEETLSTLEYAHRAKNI
The experiment in a line: ADP-Glo Eg5 assay (4.8 μM ATP). It counts as biochemical. The following applies: preformed microtubules, 4.8 μM ATP (Table 4). How it is done: The HSET or Eg5 ATPase activity was measured using the ADP-Glo Kinase Assay kit (Promega, V9102). The assays were run using final concentrations of 5 nM full-length human N-terminal His-tag HSET or 4 nM GST-tagged Eg5 motor domain protein (Cytoskeleton, EG01) and an assay buffer containing 20 mM HEPES pH 6.8, 10 mM MgCl2, 0.25 mM EGTA, 0.4 mM Triton X-100, and 1 mM DTT. Preformed microtubules (Universal Biologicals Cambridge, bovine MT001-XL, or porcine MT002-XL), which were reconstituted in 15 mM PIPES pH 7, 1 mM MgCl2, and 20 μM paclitaxel, were present at a final assay concentration of 70 μg/mL. A reaction volume of 5 μL was used in Proxiplate 384 plus white assay plates (PerkinElmer, 6008280). To measure compound inhibition, 100 nL of compound dissolved in DMSO or DMSO alone was preincubated with the HSET and microtubules for 10 min before 3 μM Ultra-Pure ATP was added to start the ATPase reaction for the 3 μM ATP HSET assay. For the 500 μM ATP HSET assay, the addition of 500 μM Ultra-Pure ATP was used. For the Eg5 ATPase assay, 4.8 μM Ultra-Pure ATP was used. All reactions were incubated at 25 °C for 80 min and then stopped by the addition of 5 μL of the ADP-Glo reagent. 10 μL of Kinase Detection Reagent was then added after a further 45 min of incubation. The luminescence was read after 45 min on a PheraStar FSX plate reader (BMG Labtech). The data processing was performed using Dotmatics Studies software package. Percentage inhibition was determined based on normalization to high controls (0% inhibition, all reagents with 100 nL of DMSO alone) and low controls (100% inhibition […], without HSET). The IC50 values for each compound were determined using a four-parameter logistic curve fit of % inhibition versus concentration.

For data set [2], the system named is centrosome-amplified (4NCA) DLD1 cells. The experiment in a line: Multipolar spindle assay (4NCA cell line). In kind it is cell-based, human. An excerpt: (§1) The cellular models consisted of chromosomally stable human colon cancer DLD1 diploid (2N) and tetraploid (4N) cells, along with tetraploid centrosome -amplified (4NCA) DLD1 cells and DLD1 HSET knockout (KO) cells. DLD1 2N and 4N cells were generated and characterized as previously described.[27],[41],[42] In order to generate 4NCA cells, we used dihydro-cytochalasin B (DCB) to transiently block cytokinesis and induce tetraploidisation and centrosome amplification in DLD1 cells. Centrosome amplification in 4NCA cells is transient and therefore they were generated from 2N cells for each run of the assay.[27] The DLD1 HSET KO cells were knockout clones generated by CRISPR and validated by sequencing to have a homozygous deletion in the KIFC1 gene.
(§2) Inhibition of HSET-mediated clustering was measured using a phenotypic assay measuring the formation of multipolar metaphase spindles in DLD1 cells with (4NCA) or without (4N) centrosome amplification. 4NCA cells were generated by treating 2N DLD1 cells with 2 μΜ DCB for 24 h, washed, and released in growth media for 24 h. 4N and 4NCA DLD1 cells were plated in 96-well ibidi μ-Clear plates (IB-89626, ibidi) with a no. 1.5 polymer coverslip bottom with optimal imaging properties. To enrich the mitotic population, cells were first treated for 3.5 h with 8 μM pro-TAME (I-440-01M, R&D system), an inhibitor of APC/C that transiently arrests cells in metaphase without affecting the structure of the spindle. Following the initial arrest, cells were treated with HSET compounds in the presence of 8 μM MG-132 (S2619, SelleckChem), a proteasome inhibitor that helps to maintain the metaphase arrest, where the number of spindle poles/cell can be optimally quantified by an automated segmentation analysis.
(§3) Cells were then fixed in methanol and stained for 3 h for mitotic pole marker aurora A (1:1000 610939 mouse anti-IAK1, BD Biosciences) and phosphorylated histone H3 (1:1500 ab47297 anti-histone H3 pS10, Abcam) as a marker of mitotic cells in 1.5% FBS in PBS. Following primary antibody treatment, cells were incubated with secondary antibodies Alexa Fluor 488 goat antimouse and Alexa Fluor 555 goat antirabbit (1:1500, A11029 and A21429, respectively, Life Technologies) together with 1 μg/mL DAPI (D9542, Sigma) in 1.5% FBS in PBS. Image acquisition was performed at 10× using the GE INCELL 2200 High Content Imaging System (Cytiva) and analyzed using the InCell Investigator software. Mitotic cells were identified by high pHH3 staining and were scored as multipolar if they had more than two mitotic spindle poles. The percentage of multipolar mitoses was calculated by dividing the number of multipolar mitoses by the total of all visible mitoses in one well of a 96-well plate (n > 100 for each replicate, two replicates per concentration point).

Data set [3] deals with non-centrosome amplified DLD1 (4N) cells. The experiment in a line: Multipolar spindle assay (4N cell line). Particulars: for % Multipolarity above baseline @ 15 mM (4N cells): supplementary CSV; for % multipolarity above baseline @ 15 μM (4N cells): 4N DLD1 cells (Table 4). In kind it is cell-based, human.
Text: as §1, §2, §3

A short description of data set [4]: Kinetic aqueous solubility (KSol), HPLC-UV. In kind it is physicochemical. The following applies: PBS buffer pH 7.4, 100 μM solution with 1% DMSO, HPLC with UV detection.
Where [5] appears, read: 15 μM, 4NCA DLD1 cells (Table 4).
Where [6] appears, read: 15 µM, 4NCA cells, supplementary CSV.

The compound `CCCOC(=O)c1sc(NC(=O)C[C@H](CCCN(C)C)NC(=O)c2cccc(-c3noc(C)n3)c2)nc1C` [Compound 36, Propyl (S)-2-(6-(Dimethylamino)-3-(3-(5-methyl-1,2,4-oxadiazol-3-yl)benzamido)hexanamido)-4-methylthiazole-5-carboxylate] gave a pIC50 in data set [1] of less than 3.70. In addition, the “% multipolarity above baseline @ 15 μM (4NCA cells)” value in data set [2] (setting [5]) and in data set [2] (setting [6]) was 15% throughout. Also, the “% Multipolarity above baseline @ 15 mM (4N cells)” value in data set [3] (15 μM) was determined as 1%. Further, the “% multipolarity above baseline @ 15 μM (4N cells)” value in data set [3] is listed as 1%. In data set [4], this compound returned a KSol data of more than 90 µM.

`CCCOC(=O)c1sc(NC(=O)C[C@H](CCCN(C)C(=O)O[C@@H]2CC/C=C/CCC2)NC(=O)c2cccc(-c3noc(C)n3)c2)nc1C` [Compound 38, Propyl 2-((S)-6-(((((S,E)-Cyclooct-4-en-1-yl)oxy)carbonyl)(methyl)amino)-3-(3-(5-methyl-1,2,4-oxadiazol-3-yl)benzamido)hexanamido)-4-methylthiazole-5-carboxylate] yielded a KSol data in data set [4] of 1.8 µM.

The compound `CCCOC(=O)c1sc(NC(=O)C[C@H](CCCNC)NC(=O)c2cccc(-c3noc(C)n3)c2)nc1C` [Compound 35, Propyl (S)-4-Methyl-2-(3-(3-(5-methyl-1,2,4-oxadiazol-3-yl)benzamido)-6-(methylamino)hexanamido)thiazole-5-carboxylate] gave a pIC50 in data set [1] of less than 3.70. For the same compound, the “% multipolarity above baseline @ 15 μM (4NCA cells)” value in data set [2] (setting [5]) and in data set [2] (setting [6]) was 11% each time. Also, the “% Multipolarity above baseline @ 15 mM (4N cells)” value in data set [3] (15 μM) was 1%. Further, the “% multipolarity above baseline @ 15 μM (4N cells)” value in data set [3] is reported as 1%. The same compound showed a KSol data in data set [4] of more than 90 µM.

`CCCOC(=O)c1sc(NC(=O)CCNC(=O)c2cccc(-c3noc(C)n3)c2)nc1C` [Compound 32, Propyl 4-Methyl-2-(3-(3-(5-methyl-1,2,4-oxadiazol-3-yl)benzamido)propanamido)thiazole-5-carboxylate]: the pIC50 in data set [1] is less than 3.70. For the same compound, the “% multipolarity above baseline @ 15 μM (4NCA cells)” value in data set [2] (setting [5]) and in data set [2] (setting [6]) was 21% in each case. The “increase in mitotic spindle multipolarity (4NCA)” value in data set [2] (15 μM, centrosome-amplified (4NCA) DLD1 cell line) turned out to be 21%. Further, the “% Multipolarity above baseline @ 15 mM (4N cells)” value in data set [3] (15 μM) came to 2%. Besides, the “effect on multipolar mitoses (4N), in words” value in data set [3] (15 μM, non-centrosome amplified DLD1 (4N) cell line) was “minimal effect”. Moreover, the “% multipolarity above baseline @ 15 μM (4N cells)” value in data set [3] was 2%.

Source of the values: publication PMC9969401, “Discovery of 2-(3-Benzamidopropanamido)thiazole-5-carboxylate Inhibitors of the Kinesin HSET (KIFC1) and the Development of Cellular Target Engagement Probes” (Journal of Medicinal Chemistry, 2023).
